Laboratory results from ChEMBL document CHEMBL4339196, “1H-Pyrrolo[3,2-b]pyridine GluN2B-Selective Negative Allosteric Modulators” (ACS Med Chem Lett, 2019).

Experiments:
[1] = Solubility of the compound at pH 2; format: physicochemical; conditions: buffer
[2] = Solubility of the compound at pH 7; format: physicochemical; conditions: buffer

O=C(Cn1c(=O)[nH]c2ncc(-c3cccc(C(F)(F)F)c3)cc21)NC1CC1
solubility [1]: < 4 µM
solubility [2]: < 4 µM
